Reference: patent publication US9695164B2, “Crystalline forms of pyrroloquinoline quinone disodium salt” (Zhucheng Haotian Pharm Co., Ltd., priority 2012, dated 2017)
Entries after “also recorded” stand apart in the source; their conditions may differ. Structures can show the parent of a compound that is named as a salt. One block for each molecule: values may come before it.

Legend:
Format in all cases: physicochemical
[1] = Approximate solubility of PQQ disodium salt in various solvents by gravimetric analysis; conditions: for Solubility @ 25: 25° C.; for Solubility @ 50: 50° C.
Procedure: Before preparation of the crystals, conventional methods may be employed to measure the solubility of the PQQ disodium salt in different solvents, and subsequently appropriate solvent(s) may be selected to prepare the crystals of the invention. For example, the following method may be used to measure the solubility of the PQQ disodium salt in various solvents:
(1) At 25° C. and 50° C. respectively, about 25 mg PQQ disodium salt is stirred in 1 ml solvent to equilibrium for at least 24 h, and subsequently the solution is filtered, wherein the solvent in the liquid part is volatized under vacuum completely. The approximate solubility of the raw material in the solvent is determined by gravimetric analysis.
Gravimetric analysis: a volume (generally 0.5 mL) of the filtrate is weighed accurately and placed in a vessel which has already been dried and weighed, wherein the weight of the vessel is indicated as Mhollow. Subsequently, the total weight of the vessel and the filtrate is measured and indicated as M0. Then, the weight of the filtrate is M0−Mhollow. After the solvent is volatized completely under vacuum, the total weight is measured accurately again (indicated as M1). Then, the mass of the precipitated solid is M1−Mhollow, and the mass of the solvent is M0−M1. As such, the approximate solubility of the raw material in this solvent is: X(g)=[(M1−Mhollow)/(M0−M1)]×100(g)

[2] = Hygroscopic analysis (DVS); conditions: 25° C.; for moisture absorption / hygroscopicity compared among crystal forms (overlay of DVS graphs) / hygroscopicity (in words): disodium salt; for hygroscopicity compared among crystal forms (overlay of DVS graphs): at 80% RH; for variation of hygroscopicity: conventional storage environment of 40-80 RH
Procedure: 4. Hygroscopic Analysis As indicated by DVS (FIG. 4), crystalline Form A absorbs 1.6% of moisture at 40% RH, 2.3% at 65% RH, and 2.8% at 80% RH. […] Instrument model: SMS DVS Intrinsic, 0-95% RH, Temperature: 25° C. As described above, crystal E was prepared according to Example 1 in patent literature 1. The hygroscopic analysis graph of crystal E (shown in FIG. 21) was obtained using the DVS test method and conditions used in the foregoing examples, and its hygroscopic property was compared with those of crystals A and B according to the invention (the results are shown in FIG. 22).

[3] = Crystal form stability (Table 3); conditions: disodium salt
[4] = Solvent content (thermogravimetric analysis, Table 3); conditions: disodium salt
Procedure: 2. Thermogravimetric Analysis
(the theoretical weight loss of a water molecule is 4.6%). It is possibly a hydrate. The peak temperature of decomposition is 312.5° C.
Instrument model: Netzsch TG 209F3
Temperature range: 30-400° C.
Protection gas: 15 mL/min

[5] = solvent acetonitrile:methyl isobutyl ketone (1.1)
[6] = solvent acetonitrile:methyl tert-butyl ether (1:1), first line (r31)
[7] = solvent acetonitrile:methyl tert-butyl ether (1:1), second line (r33)
[8] = solvent acetonitrile:toluene (1:1)
[9] = solvent acetonitrile:water (1:1)
[10] = solvent methyl tert-butyl ether
[11] = solvent tetrahydrofuran:water (1:1)

Compound: O=C(O)c1cc(C(=O)O)c2c(n1)C(=O)C(=O)c1cc(C(=O)O)[nH]c1-2 [PQQ disodium salt, pyrroloquinoline quinone disodium salt]
Solubility @ 25 ([1]; solvent acetone:water (1:1)): 0.53 g/100 g
Solubility @ 50 ([1]; solvent acetone:water (1:1)): 1.36 g/100 g
Solubility @ 25 ([1]; solvent acetone): 0.13 g/100 g
Solubility @ 50 ([1]; solvent acetone): 0.05 g/100 g
Solubility @ 25 [1, 5]: 0.09 g/100 g
Solubility @ 50 [1, 5]: 0.04 g/100 g
Solubility @ 25 [1, 6]: 0.10 g/100 g
Solubility @ 50 [1, 6]: 0.04 g/100 g
Solubility @ 25 [1, 7]: 0.03 g/100 g
Solubility @ 50 [1, 7]: 0.02 g/100 g
Solubility @ 25 [1, 8]: 0.04 g/100 g
Solubility @ 50 [1, 8]: 0.00 g/100 g
Solubility @ 25 [1, 9]: 0.22 g/100 g
Solubility @ 50 [1, 9]: 0.14 g/100 g
Solubility @ 25 ([1]; solvent acetonitrile): 0.01 g/100 g
Solubility @ 50 ([1]; solvent acetonitrile): 0.05 g/100 g
Solubility @ 25 ([1]; solvent chloroform): 0.02 g/100 g
Solubility @ 50 ([1]; solvent chloroform): 0.03 g/100 g
Solubility @ 25 ([1]; solvent dichloromethane): 0.02 g/100 g
Solubility @ 50 ([1]; solvent dichloromethane): 0.04 g/100 g
Solubility @ 25 ([1]; solvent ethanol:water (1:1)): 0.10 g/100 g
Solubility @ 50 ([1]; solvent ethanol:water (1:1)): 0.10 g/100 g
Solubility @ 25 ([1]; solvent ethanol): 0.08 g/100 g
Solubility @ 50 ([1]; solvent ethanol): 0.11 g/100 g
Solubility @ 25 ([1]; solvent ethyl acetate): 0.11 g/100 g
Solubility @ 50 ([1]; solvent ethyl acetate): 0.09 g/100 g
Solubility @ 25 ([1]; solvent ethyl ether): 0.06 g/100 g
Solubility @ 50 ([1]; solvent ethyl ether): 0.01 g/100 g
Solubility @ 25 ([1]; solvent heptane): 0.02 g/100 g
Solubility @ 50 ([1]; solvent heptane): 0.11 g/100 g
Solubility @ 25 ([1]; solvent hexane): 0.06 g/100 g
Solubility @ 50 ([1]; solvent hexane): 0.02 g/100 g
Solubility @ 25 ([1]; solvent isopentanol): 0.02 g/100 g
Solubility @ 50 ([1]; solvent isopentanol): 0.00 g/100 g
Solubility @ 25 ([1]; solvent isopropanol): 0.09 g/100 g
Solubility @ 50 ([1]; solvent isopropanol): 0.08 g/100 g
Solubility @ 25 ([1]; solvent isopropyl acetate): 0.36 g/100 g
Solubility @ 50 ([1]; solvent isopropyl acetate): 0.03 g/100 g
Solubility @ 25 ([1]; solvent methanol:water (1:1)): 0.15 g/100 g
Solubility @ 50 ([1]; solvent methanol:water (1:1)): 0.13 g/100 g
Solubility @ 25 ([1]; solvent methanol): 0.09 g/100 g
Solubility @ 50 ([1]; solvent methanol): 0.11 g/100 g
Solubility @ 25 ([1]; solvent methyl ethyl ketone): 0.16 g/100 g
Solubility @ 50 ([1]; solvent methyl ethyl ketone): 0.06 g/100 g
Solubility @ 25 ([1]; solvent methyl isobutyl ketone): 0.05 g/100 g
Solubility @ 50 ([1]; solvent methyl isobutyl ketone): 0.07 g/100 g
Solubility @ 25 [1, 10]: 0.05 g/100 g
Solubility @ 50 [1, 10]: 0.03 g/100 g
Solubility @ 25 ([1]; solvent nitromethane): 0.01 g/100 g
Solubility @ 50 ([1]; solvent nitromethane): 0.02 g/100 g
Solubility @ 25 [1, 11]: 0.24 g/100 g
Solubility @ 50 [1, 11]: 0.29 g/100 g
Solubility @ 25 ([1]; solvent tetrahydrofuran): 0.15 g/100 g
Solubility @ 50 ([1]; solvent tetrahydrofuran): 0.24 g/100 g
Solubility @ 25 ([1]; solvent toluene): 0.02 g/100 g
Solubility @ 50 ([1]; solvent toluene): 0.05 g/100 g
Solubility @ 25 ([1]; solvent water): 0.37 g/100 g
Solubility @ 50 ([1]; solvent water): 0.89 g/100 g

Compound: O=C(O)c1cc(C(=O)O)c2c(n1)C(=O)C(=O)c1cc(C(=O)O)[nH]c1-2 [crystal E, pyrroloquinoline quinone disodium salt]
moisture absorption ([2]; 40% RH): 11.8%
moisture absorption ([2]; 65% RH): 13.0%
moisture absorption ([2]; 80% RH): 13.6%
hygroscopicity compared among crystal forms (overlay of DVS graphs) [2]: largest hygroscopicity
variation of hygroscopicity [2]: less than 2%
hygroscopicity (in words) [2]: rather hygroscopic; also recorded: slightly hygroscopic

Compound: O=C(O)c1cc(C(=O)O)c2c(n1)C(=O)C(=O)c1cc(C(=O)O)[nH]c1-2 [crystalline Form A, pyrroloquinoline quinone disodium salt]
moisture absorption ([2]; 40% RH): 1.6%
hygroscopicity compared among crystal forms (overlay of DVS graphs) [2]: smallest hygroscopicity
variation of hygroscopicity [2]: less than 2%
hygroscopicity (in words) [2]: only slightly hygroscopic
Crystal form stability [3]: Stable
Solvent content (%) [4]: 7.4%

More lines, main results first:

moisture absorption ([2]; 40% RH): 7.3%
Crystal form stability [3]: Stable
Solvent content (%) [4]: 12.2%
Compound: O=C(O)c1cc(C(=O)O)c2c(n1)C(=O)C(=O)c1cc(C(=O)O)[nH]c1-2 [crystalline Form B, pyrroloquinoline quinone disodium salt]
hygroscopicity compared among crystal forms (overlay of DVS graphs) [2]: medium hygroscopicity; also recorded: relatively large hygroscopicity

moisture absorption ([2]; 40% RH): 7.8%
hygroscopicity compared among crystal forms (overlay of DVS graphs) [2]: largest hygroscopicity
hygroscopicity (in words) [2]: highly hygroscopic
Solvent content (%) [4]: 11.4%
Compound: O=C(O)c1cc(C(=O)O)c2c(n1)C(=O)C(=O)c1cc(C(=O)O)[nH]c1-2 [crystalline Form C, pyrroloquinoline quinone disodium salt]
